# Assay results as given in ChEMBL document CHEMBL1240349, “Influence of tigecycline on expression of virulence factors in biofilm-associated cells of methicillin-resistant Staphylococcus aureus” (2010).
# What was measured:
# Assay type in all cases: functional
# Staphylococcus aureus [1] = experiment: Decrease in clpC expression in biofilm-associated cells of epidemic methicillin-resistant Staphylococcus aureus isolate 16-2 at 4 times MIC incubated for 1 hr by RT-PCR relative to untreated control
# Staphylococcus aureus [2] = experiment: Increase in gapR gene expression in biofilm-associated cells of epidemic methicillin-resistant Staphylococcus aureus isolate 16 at 4 times MIC incubated for 1 hr by whole genome microarray relative to untreated control
# Staphylococcus aureus [3] = experiment: Decrease in cap8H gene expression in biofilm-associated cells of epidemic methicillin-resistant Staphylococcus aureus isolate 16 at 4 times MIC incubated for 1 hr by whole genome microarray relative to untreated control
# Staphylococcus aureus [4] = experiment: Decrease in capD gene expression in biofilm-associated cells of epidemic methicillin-resistant Staphylococcus aureus isolate 16 at 4 times MIC incubated for 1 hr by whole genome microarray relative to untreated control
# Staphylococcus aureus [5] = experiment: Increase in rplB gene expression in biofilm-associated cells of epidemic methicillin-resistant Staphylococcus aureus isolate 16 at 4 times MIC incubated for 1 hr by whole genome microarray relative to untreated control
# Staphylococcus aureus [6] = experiment: Increase in fnbA gene expression in biofilm-associated cells of epidemic methicillin-resistant Staphylococcus aureus isolate 16 at 4 times MIC incubated for 1 hr by whole genome microarray relative to untreated control
# Staphylococcus aureus [7] = experiment: Increase in nusG gene expression in biofilm-associated cells of epidemic methicillin-resistant Staphylococcus aureus isolate 16 at 4 times MIC incubated for 1 hr by whole genome microarray relative to untreated control
# Staphylococcus aureus [8] = experiment: Decrease in tst gene expression in biofilm-associated cells of epidemic methicillin-resistant Staphylococcus aureus isolate 16 at 4 times MIC incubated for 1 hr by whole genome microarray relative to untreated control
# Staphylococcus aureus [9] = experiment: Decrease in capC gene expression in biofilm-associated cells of epidemic methicillin-resistant Staphylococcus aureus isolate 16 at 4 times MIC incubated for 1 hr by RT-PCR relative to untreated control
# Staphylococcus aureus [10] = experiment: Increase in tsf gene expression in biofilm-associated cells of epidemic methicillin-resistant Staphylococcus aureus isolate 16 at 4 times MIC incubated for 1 hr by whole genome microarray relative to untreated control
# Staphylococcus aureus [11] = experiment: Increase in rpsH gene expression in biofilm-associated cells of epidemic methicillin-resistant Staphylococcus aureus isolate 16 at 4 times MIC incubated for 1 hr by whole genome microarray relative to untreated control
# Staphylococcus aureus [12] = experiment: Increase in rpmI gene expression in biofilm-associated cells of epidemic methicillin-resistant Staphylococcus aureus isolate 16 at 4 times MIC incubated for 1 hr by whole genome microarray relative to untreated control
# Staphylococcus aureus [13] = experiment: Increase in mnhG expression in biofilm-associated cells of epidemic methicillin-resistant Staphylococcus aureus isolate 16-1 at 4 times MIC incubated for 1 hr by RT-PCR relative to untreated control
# Staphylococcus aureus [14] = experiment: Decrease in capG gene expression in biofilm-associated cells of epidemic methicillin-resistant Staphylococcus aureus isolate 16 at 4 times MIC incubated for 1 hr by RT-PCR relative to untreated control
# Staphylococcus aureus [15] = experiment: Increase in cna expression in biofilm-associated cells of epidemic methicillin-resistant Staphylococcus aureus isolate 15 at 4 times MIC incubated for 1 hr by RT-PCR relative to untreated control
# Staphylococcus aureus [16] = experiment: Decrease in clpC expression in biofilm-associated cells of epidemic methicillin-resistant Staphylococcus aureus isolate 15 at 4 times MIC incubated for 1 hr by RT-PCR relative to untreated control
# Staphylococcus aureus [17] = experiment: Increase in ssaA gene expression in biofilm-associated cells of epidemic methicillin-resistant Staphylococcus aureus isolate 16 at 4 times MIC incubated for 1 hr by RT-PCR relative to untreated control
# Staphylococcus aureus [18] = experiment: Increase in mnhE gene expression in biofilm-associated cells of epidemic methicillin-resistant Staphylococcus aureus isolate 16 at 4 times MIC incubated for 1 hr by whole genome microarray relative to untreated control
# Staphylococcus aureus [19] = experiment: Increase in mnhG gene expression in biofilm-associated cells of epidemic methicillin-resistant Staphylococcus aureus isolate 16 at 4 times MIC incubated for 1 hr by RT-PCR relative to untreated control
# Staphylococcus aureus [20] = experiment: Increase in dltC gene expression in biofilm-associated cells of epidemic methicillin-resistant Staphylococcus aureus isolate 16 at 4 times MIC incubated for 1 hr by whole genome microarray relative to untreated control
# Staphylococcus aureus [21] = experiment: Decrease in sasF gene expression in biofilm-associated cells of epidemic methicillin-resistant Staphylococcus aureus isolate 16 at 4 times MIC incubated for 1 hr by whole genome microarray relative to untreated control
# Staphylococcus aureus [22] = experiment: Decrease in capB gene expression in biofilm-associated cells of epidemic methicillin-resistant Staphylococcus aureus isolate 16 at 4 times MIC incubated for 1 hr by whole genome microarray relative to untreated control
# Staphylococcus aureus [23] = experiment: Increase in infA gene expression in biofilm-associated cells of epidemic methicillin-resistant Staphylococcus aureus isolate 16 at 4 times MIC incubated for 1 hr by whole genome microarray relative to untreated control
# Staphylococcus aureus [24] = experiment: Increase in rpsE gene expression in biofilm-associated cells of epidemic methicillin-resistant Staphylococcus aureus isolate 16 at 4 times MIC incubated for 1 hr by whole genome microarray relative to untreated control
# Staphylococcus aureus [25] = experiment: Increase in cna gene expression in biofilm-associated cells of epidemic methicillin-resistant Staphylococcus aureus isolate 16 at 4 times MIC incubated for 1 hr by whole genome microarray relative to untreated control
# Staphylococcus aureus [26] = experiment: Decrease in capC expression in biofilm-associated cells of epidemic methicillin-resistant Staphylococcus aureus isolate 16-2 at 4 times MIC incubated for 1 hr by RT-PCR relative to untreated control
# Staphylococcus aureus [27] = experiment: Increase in ssaA expression in biofilm-associated cells of epidemic methicillin-resistant Staphylococcus aureus isolate 16-1 at 4 times MIC incubated for 1 hr by RT-PCR relative to untreated control
# Staphylococcus aureus [28] = experiment: Decrease in capG gene expression in biofilm-associated cells of epidemic methicillin-resistant Staphylococcus aureus isolate 16 at 4 times MIC incubated for 1 hr by whole genome microarray relative to untreated control
# Staphylococcus aureus [29] = experiment: Decrease in sasF expression in biofilm-associated cells of epidemic methicillin-resistant Staphylococcus aureus isolate 16-2 at 4 times MIC incubated for 1 hr by RT-PCR relative to untreated control
# Staphylococcus aureus [30] = experiment: Increase in isaA expression in biofilm-associated cells of epidemic methicillin-resistant Staphylococcus aureus isolate 16-1 at 4 times MIC incubated for 1 hr by RT-PCR relative to untreated control
# Staphylococcus aureus [31] = experiment: Decrease in mecI gene expression in biofilm-associated cells of epidemic methicillin-resistant Staphylococcus aureus isolate 16 at 4 times MIC incubated for 1 hr by whole genome microarray relative to untreated control
compound,measurement,setting,value
CN(C)c1cc(NC(=O)CNC(C)(C)C)c(O)c2c1C[C@H]1C[C@H]3[C@H](N(C)C)C(O)=C(C(N)=O)C(=O)[C@@]3(O)C(O)=C1C2=O [TIGECYCLINE],fold change (FC),Staphylococcus aureus [1],19.87
same,fold change (FC),Staphylococcus aureus [2],9.12
same,fold change (FC),Staphylococcus aureus [3],2.18
same,fold change (FC),Staphylococcus aureus [4],2.19
same,fold change (FC),Staphylococcus aureus [5],13.38
same,fold change (FC),Staphylococcus aureus [6],2.3
same,fold change (FC),Staphylococcus aureus [7],4.34
same,fold change (FC),Staphylococcus aureus [8],2.39
same,fold change (FC),Staphylococcus aureus [9],1.75
same,fold change (FC),Staphylococcus aureus [10],3.23
same,fold change (FC),Staphylococcus aureus [11],14.86
same,fold change (FC),Staphylococcus aureus [12],10.51
same,fold change (FC),Staphylococcus aureus [13],5.16
same,fold change (FC),Staphylococcus aureus [14],1.01
same,fold change (FC),Staphylococcus aureus [15],1.55
same,fold change (FC),Staphylococcus aureus [16],1.23
same,fold change (FC),Staphylococcus aureus [17],2.04
same,fold change (FC),Staphylococcus aureus [18],3.15
same,fold change (FC),Staphylococcus aureus [19],5.16
same,fold change (FC),Staphylococcus aureus [20],2.29
same,fold change (FC),Staphylococcus aureus [21],2.3
same,fold change (FC),Staphylococcus aureus [22],2.08
same,fold change (FC),Staphylococcus aureus [23],4.77
same,fold change (FC),Staphylococcus aureus [24],11.01
same,fold change (FC),Staphylococcus aureus [25],2.1
same,fold change (FC),Staphylococcus aureus [26],1.09
same,fold change (FC),Staphylococcus aureus [27],2.04
same,fold change (FC),Staphylococcus aureus [28],2.3
same,fold change (FC),Staphylococcus aureus [29],3.53
same,fold change (FC),Staphylococcus aureus [30],7.68
same,fold change (FC),Staphylococcus aureus [31],2.39
